The text below walks through data of article PMC10821118, “Gallium-68-Labeled KISS1-54 Peptide for Mapping KISS1 Receptor via PET: Initial Evaluation in Human Tumor Cell Lines and in Tumor-Bearing Mice” (Pharmaceuticals, 2023).

Ends that are not written are not given here. Where only a bound is given, the exact number is not on record here.

One data set concerns KISS1R in HCT116 cells. The experiment in a line: KISS1R expression by immunofluorescence after Decitabine pre-incubation. It counts as cell-based, human. As to conditions: HCT116 pre-incubated 72 h with 5 µM Decitabine versus untreated. Here is the method:
Cells were seeded in 24-well plates on microscope cover glasses (VWR, Ismaning, Germany). After fixation/permeabilization, cells were incubated overnight with anti-KISS1R antibody (abcam, Berlin, Germany) or without primary antibody (negative control) and then stained with Alexa-Fluor®-488 conjugated secondary antibody (abcam, Berlin, Germany). The nucleus was counterstained with 4′,6-Diamidin-2-phenylindol (DAPI) (Sigma-Aldrich, Deisenhofen, Germany). Fluorescence images were taken on an Axio Scope.A1 fluorescence microscope equipped with a camera and the ZEN2 (blue edition)-Software, version 2.0.0.0 (Zeiss, Jena, Germany). Fluorescence canals were merged using the software FIJI (Image J, version 1.53t).
Cells were seeded in 24-well plates, and 1 h before [^68Ga]KISS1-54 uptake, the cell culture medium was replaced by PBS/5% BSA. Cells were incubated at 37 °C with [^68Ga]KISS1-54 for 5–90 min or co-incubated for 60 min with [^68Ga]KISS1-54 and KISS1-54 (Sigma Aldrich, Deisenhofen, Germany). After incubation, cells were washed three times with ice-cold PBS/5% BSA and harvested. Radioactivity was measured with a gamma-counter (Wizard 2480, Perkin-Elmer, Rodgau, Germany), and cells were subsequently counted with Countess 3 (Thermo Fisher Scientific, Waltham, MA, USA). […]

The subject of the next data set is LNCap tumor xenograft. The class given is in vivo, CD1 nu/nu mice. Here is the method: (§1) The animal studies were conducted according to the principles and procedures outlined in the Guide for the Care and Use of Laboratory Animals and were in line with the Animal Welfare Act and the directive 2010/63/EU. All mice (CD1-Foxn1nu) were purchased from Charles River (Sulzfeld, Germany) and held in the animal facility of the University Hospital of Würzburg. After their arrival, they had at least a week to get used to their new environment in the animal facility.
(§2) Then, 5 × 10^6 MDA-MB-231-cells in PBS and 5 × 10^6 LNCap cells in Matrigel Matrix® without phenol-red (Corning Life Sciences B.V., Amsterdam, The Netherlands), respectively, were inoculated subcutaneously into the front flank of eight-week-old mice. After implantation, the animals were examined and monitored daily for tumor size and well-being.
(§3) After the tumor reached a size of ≥0.5 cm in diameter, micro-PET scans were started.
(§4) For tracer injection, and during the micro-PET scans, mice were kept under 1.5% isoflurane anesthesia in 100% oxygen. Body temperature was maintained at a physiological level by using heating pads throughout the whole examination period.
(§5) Then, 3.0 ± 0.9 MBq of freshly prepared [^68Ga]KISS1-54 was injected intravenously (i.v.) into the tail vein. The first animals were scanned over 80 min directly after tracer injection to find out the optimal time point for PET acquisition. […] Therefore, data acquisition for all further mice started 60 min p.i. over 20 min.
(§6) Each acquired set of data was sorted with Fourier rebinning (FORE) to a 2D dataset of sinograms, which were reconstructed with the OSEM2D reconstruction algorithm. The software AMIDE Medical Image Data Examiner (Version 1.0.4) was used to quantify the radioactivity uptake in various regions of interest (ROIs). For the semi-quantitative analysis of the PET images, spherical ROIs were defined and used. For quantification, tumor-to-muscle, tumor-to-liver, and tumor-to-lung ratios (maximal tumor uptake/mean organ uptake) were calculated.

Data set [1] relates to MDA-MB-231 tumor xenograft. It counts as in vivo, CD1 nu/nu mice. Here is the method: as §1, §2, §3, §4, §5, §6
Data set [2] can be described thus: Stability in injection solution by radio-HPLC. The class given is physicochemical. The following applies: 3 h after preparation (EOS), diluted in PBS, room temperature, C18. Here is the method: The radiochemical purity of [^68Ga]KISS1-54 was determined via high-performance liquid chromatography (HPLC). A linear gradient started from 100% H2O (0.1% TFA) to 100% acetonitrile (0.1% TFA) over 10 min, with a flow rate of 0.7 mL/min, using a Nucleosil column (100-5 C18 125 × 4.6 mm) (CS-Chromatographie, Langerwehe, Germany) and HPLC system (Knauer, Berlin, Germany). For the determination of the in vitro stability, the [^68Ga]KISS1-54 solution was diluted in phosphate-buffered saline (PBS) and stored at room temperature, and the HPLC runs were repeated 1 h and 3 h after the end of synthesis.

The format of data set [3] is in vitro ADME, human. Here is the method:
For the determination of the […] stability, [^68Ga]KISS1-54 was incubated in fresh human serum at 37 °C for 3 h. After 0.5 h, 1 h, 2 h, and 3 h, adequate samples were taken, purified, and analyzed via HPLC under the conditions described above. […] The measured radioactivity (counts per minute) for each fraction was plotted versus time in a graph.

The subject of a further data set is LNCap cells. Put plainly: In vitro cell uptake, LNCap. The class given is cell-based, human. The following applies: 60 min co-incubation with nonradioactive KISS1-54, 1,000-fold, p = 0.047. As to the method:
(§7) Cells were seeded in 24-well plates, and 1 h before [^68Ga]KISS1-54 uptake, the cell culture medium was replaced by PBS/5% BSA. Cells were incubated at 37 °C with [^68Ga]KISS1-54 for 5–90 min or co-incubated for 60 min with [^68Ga]KISS1-54 and KISS1-54 (Sigma Aldrich, Deisenhofen, Germany). After incubation, cells were washed three times with ice-cold PBS/5% BSA and harvested. Radioactivity was measured with a gamma-counter (Wizard 2480, Perkin-Elmer, Rodgau, Germany), and cells were subsequently counted with Countess 3 (Thermo Fisher Scientific, Waltham, MA, USA). In the case of treatment with 5-Aza-2′-Deoxycytidine (Decitabine (DC)), cells were preincubated for 72 h in cell culture medium containing 5 µM Decitabine (Merck Millipore, Darmstadt, Germany). For data analysis, the determined accumulation of [^68Ga]KISS1-54 in vitro was standardized as “uptake/100,000 cells” for a better comparison. For example, the cell number differed between pretreatment with and without Decitabine, which is due to the treatment itself, making standardization necessary.

The next data set has as its system HepG2 cells. Put plainly: In vitro cell uptake, HepG2. The class given is cell-based, human. As to conditions: 60 min co-incubation with nonradioactive KISS1-54, 1,000-fold, p = 0.02. Here is the method: as §7
In the next data set the test system is MCF-7 cells. Put plainly: In vitro cell uptake, MCF-7. As to conditions: 60 min co-incubation with nonradioactive KISS1-54, 1,000-fold, p = 0.004. It counts as cell-based, human. Here is the method:
as §7

The subject of another data set is HCT116 cells. Put plainly: In vitro cell uptake, HCT116. The class given is cell-based, human. As to the method:
as §7

The next data set deals with HeLa cells. The experiment in a line: In vitro cell uptake, HeLa. The following applies: 60 min co-incubation with nonradioactive KISS1-54, 1,000-fold, p < 0.001. It counts as cell-based, human. Here is the method:
as §7

For another data set, the system named is SK-BR-3 cells. Put plainly: In vitro cell uptake, SK-BR-3. It counts as cell-based, human. The following applies: 60 min co-incubation with nonradioactive KISS1-54, 1,000-fold, p = 0.02. Here is the method:
as §7

The next data set concerns MDA-MB-231 cells. The experiment in a line: In vitro cell uptake, MDA-MB-231. It counts as cell-based, human. The following applies: 60 min co-incubation with nonradioactive KISS1-54, 1,000-fold, not significant, p = 0.08. As to the method: as §7
A short description of the next data set: in vivo. Also on record: species or system CD1 nu/nu mice. As to conditions: mouse, iv; for tissue uptake at 1 h: CD1-Foxn1nu (CD1 nu/nu), total radioactivity. Here is the method: as §1, §2, §3, §4, §5, §6
The target in data set [4] is KISS1 receptor (KISS1R or GPR54). The following applies: affinity for KISS1R; ref [1],[2]; cited from earlier work. As to the method:
Kisspeptins (KPs) summarize the family of KISS1 peptides, which bind at the KISS1 receptor (KISS1R or GPR54) with high affinity. Among the KPs, KISS1-54 is the best characterized representative (Ki 1.45 ± 0.1 nM for KISS1-54). The Kiss1 gene was first identified as a metastasis suppressor gene in melanoma, which suppresses metastasis without affecting the formation of primary tumor [3]. Since then, Kisspeptin was also identified in pancreatic, lung, breast, ovarian, gastric, colon, bladder, esophageal, and small intestine cancer.

`Nc1ncn([C@H]2C[C@H](O)[C@@H](CO)O2)c(=O)n1` [Decitabine, 5-Aza-2′-Deoxycytidine]: the “KISS1R level by immunofluorescence” value in the data set with KISS1R in HCT116 cells was “increase in the KISS1R level”.

For the molecule `O=C[C@H]([18F])[C@@H](O)[C@H](O)[C@H](O)CO` [[^18F]FDG, 2-[^18F]fluoro-2-deoxyglucose, reference compound], the “tumor uptake in control PET (tumor vitality)” value in the data set with LNCap tumor xenograft (LNCap tumor, scan the day before [^68Ga]KISS1-54) is given as “clear FDG uptake”; in data set [1] (MDA-MB-231 tumor, scan the day before [^68Ga]KISS1-54) it was “clear FDG uptake”.

The term tissue uptake denotes the percentage of the injected dose found per gram of tissue. Take `CC[C@H](C)[C@H](NC(=O)[C@H](CCC(N)=O)NC(=O)[C@H](CCCNC(=N)N)NC(=O)[C@H](CO)NC(=O)[C@H](Cc1c[nH]cn1)NC(=O)[C@@H]1CCCN1C(=O)[C@H](C)NC(=O)[C@H](CO)NC(=O)[C@H](CC(C)C)NC(=O)CNC(=O)[C@@H]1CCCN1C(=O)[C@H](CCC(N)=O)NC(=O)[C@H](CCC(N)=O)NC(=O)[C@H](CCCNC(=N)N)NC(=O)[C@H](CO)NC(=O)CNC(=O)[C@H](CO)NC(=O)[C@H](CO)NC(=O)[C@H](CCC(=O)O)NC(=O)[C@@H]1CCCN1C(=O)[C@@H]1CCCN1C(=O)[C@@H]1CCCN1C(=O)[C@H](CO)NC(=O)[C@H](CC(C)C)NC(=O)[C@H](CO)NC(=O)[C@@H](NC(=O)CNC(=O)CCC(C(=O)O)N1CCN(CC(=O)O)CCN(CC(=O)O)CC1)[C@@H](C)O)C(=O)N1CCC[C@H]1C(=O)N[C@@H](C)C(=O)N1CCC[C@H]1C(=O)N[C@@H](CCC(N)=O)C(=O)NCC(=O)N[C@@H](C)C(=O)N[C@H](C(=O)N[C@@H](CC(C)C)C(=O)N[C@H](C(=O)N[C@@H](CCC(N)=O)C(=O)N[C@@H](CCCNC(=N)N)C(=O)N[C@@H](CCC(=O)O)C(=O)N[C@@H](CCCCN)C(=O)N[C@@H](CC(=O)O)C(=O)N[C@@H](CC(C)C)C(=O)N1CCC[C@H]1C(=O)N[C@@H](CC(N)=O)C(=O)N[C@@H](Cc1ccc(O)cc1)C(=O)N[C@@H](CC(N)=O)C(=O)N[C@@H](Cc1c[nH]c2ccccc12)C(=O)N[C@@H](CC(N)=O)C(=O)N[C@@H](CO)C(=O)N[C@@H](Cc1ccccc1)C(=O)NCC(=O)N[C@@H](CC(C)C)C(=O)N[C@@H](CCCNC(=N)N)C(=O)N[C@@H](Cc1ccccc1)C(N)=O)C(C)C)C(C)C` (some centres unmarked) [[^68Ga]KISS1-54, metal not drawn]: in data set [2], the “radiochemical purity in injection solution” value is on record as over 99%. Further, in data set [3], the “radiochemical purity after incubation in human serum, 1 h” value is listed as 98.0%. Also, the “uptake with KISS1-54 co-incubation, relative to control without blocking” value is 50% in the data set with LNCap cells; 46% with HepG2 cells; 47% in the data set with MCF-7 cells; 76% in the data set on HCT116 cells (HCT116, 60 min co-incubation with nonradioactive KISS1-54, 1,000-fold, not significant, p = 0.07); 40% in the data set with HeLa cells; 46% in the data set with SK-BR-3 cells. Besides, the “uptake with KISS1-54 co-incubation, relative to control without blocking” value in the data set with MDA-MB-231 cells is on record as 65%. The “increased uptake after Decitabine treatment, with KISS1-54 co-incubation” value in the data set on HCT116 cells (DC-treated HCT116, 60 min co-incubation with KISS1-54) is reported as “could be blocked”. In the data set with HCT116 cells (HCT116, 72 h pre-incubation with 5 µM Decitabine), the “uptake in Decitabine-pre-incubated HCT116 versus untreated cells” value is “significantly increased”. The tumor uptake with LNCap tumor xenograft (LNCap tumor, 60 min p.i., i.v., µ-PET, mean ± SD, n = 8) is listed as 0.9 ± 0.3 % ID/g; in [1] (MDA-MB-231 tumor, 60 min p.i., i.v., µ-PET, mean ± SD, n = 10) it was 0.7 ± 0.3 % ID/g. Further, the “tumor visualisation in PET” value with LNCap tumor xenograft (LNCap xenograft, n = 8, visual inspection) is on record as “clearly delineated from the surrounding tissue”; in data set [1] (MDA-MB-231 tumor, n = 10, visual inspection) it was “no significant uptake”. Further, the “reduction of tumor uptake by co-injection of KISS1-54” value in the data set on LNCap tumor xenograft (LNCap-bearing mice, nonradioactive KISS1-54 in 100-fold excess) is 26 ± 5%. In addition, the tumor-to-muscle ratio in the data set with LNCap tumor xenograft (LNCap, maximal tumor uptake/mean organ uptake, 60 min p.i.) is given as 2.0 ± 0.3; in data set [1] (MDA-MB-231, maximal tumor uptake/mean organ uptake, 60 min p.i.), 1.4 ± 0.4. In addition, the tissue uptake at 1 h in the data set “in vivo” (tracer accumulation in brain) was about 0.2 %ID/g; in “in vivo” (tracer accumulation in liver), about 0.8 %ID/g; in “in vivo” (tracer accumulation in muscle) it was about 0.5 %ID/g. The clearance entry in “in vivo” is given as “rapid renal tracer clearance during the first few minutes”.

Broadly, the Ki is the equilibrium dissociation constant of an inhibitor or competing ligand from its target. With “KISS1-54: KISS1 peptide with 54 amino acids; nonradioactive blocking agent (GTSLSPPPESSGSPQQPGLSAPHSRQIPAPQGAVLVQREKDLPNYNWNSFGLRF; ends and bridges not checked; UniProt Q15726 68-121, looked up)”, the Ki in [4] was 1.45 ± 0.1 nM.
